According to patent US5356916A, “1,2,4-oxadiazole derivatives having monoamine oxidase B enzyme-inhibitory activity” (Wakamoto Pharmaceutical Co., Ltd., priority 1991, dated 1994):

Experiments:
Parkinson's disease = conditions: United States and Europe; cited from earlier work
MAO-A = biological target: T1, MAO-A (Rattus norvegicus, UniProt P21396); experiment: In vitro inhibition of monoamine oxidase A (oxygen electrode, rat liver mitochondria, substrate serotonin); assay type: biochemical; conditions: rat liver mitochondria, 37° C., preincubated, substrate serotonin (5-HT); read-out: IC50 MAO-A
T1 construct: mitochondria prepared from the liver of rats; from tissue; host or cells: rat liver mitochondria
T1 sequence (P21396 1-526): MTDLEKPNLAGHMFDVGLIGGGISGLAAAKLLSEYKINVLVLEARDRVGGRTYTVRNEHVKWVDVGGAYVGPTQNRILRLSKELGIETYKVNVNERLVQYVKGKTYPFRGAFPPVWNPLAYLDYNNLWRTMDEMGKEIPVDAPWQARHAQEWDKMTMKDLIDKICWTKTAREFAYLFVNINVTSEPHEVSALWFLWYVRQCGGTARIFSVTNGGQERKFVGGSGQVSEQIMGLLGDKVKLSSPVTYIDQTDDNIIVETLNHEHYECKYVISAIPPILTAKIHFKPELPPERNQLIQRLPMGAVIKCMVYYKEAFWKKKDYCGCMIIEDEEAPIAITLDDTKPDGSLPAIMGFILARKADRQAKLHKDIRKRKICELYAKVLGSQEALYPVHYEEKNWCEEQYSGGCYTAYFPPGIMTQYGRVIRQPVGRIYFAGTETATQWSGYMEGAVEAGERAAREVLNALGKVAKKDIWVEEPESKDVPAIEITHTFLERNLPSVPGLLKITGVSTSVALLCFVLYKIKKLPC
Method: (§1) The MAO-inhibitory activity of the compounds of the present invention was determined according to an MAO-inhibitory activity determining method using the oxygen electrode disclosed in K. F. Tipton et al., Biochem. J., 1968,108, pp. 95-99.
(§2) A potassium phosphate buffer solution of mitochondria prepared from the liver of rats was preincubated at 37° C. with or without a compound of the present invention and then a substrate was added to the mixture to thus initiate the reaction at that temperature while the dissolved oxygen-consuming reaction due to MAO activity in the reaction solution was monitored by the oxygen electrode. In this respect, the substrates used were serotonin (5-HT) for the MAO-A activity determination and benzylamine (BA) for the MAO-B activity determination. The MAO-inhibitory activity was evaluated in terms of an IC5.sbsb.0 value which is the concentration of a compound tested required for reducing the rate of oxygen-consuming reaction performed in the presence of the compound to 50% of that of the reaction performed in the absence of the compound.

MAO-B = biological target: T2, MAO-B (Rattus norvegicus, UniProt P19643); experiment: In vitro inhibition of monoamine oxidase B (oxygen electrode, rat liver mitochondria, substrate benzylamine); assay type: biochemical; conditions: for IC50: rat liver mitochondria, 37° C., preincubated, substrate benzylamine (BA), read-out: IC50 MAO-B; for MAO-A/MAO-B: ratio of IC50 values MAO-A/MAO-B
T2 construct: mitochondria prepared from the liver of rats; from tissue; host or cells: rat liver mitochondria
T2 sequence (P19643 1-520): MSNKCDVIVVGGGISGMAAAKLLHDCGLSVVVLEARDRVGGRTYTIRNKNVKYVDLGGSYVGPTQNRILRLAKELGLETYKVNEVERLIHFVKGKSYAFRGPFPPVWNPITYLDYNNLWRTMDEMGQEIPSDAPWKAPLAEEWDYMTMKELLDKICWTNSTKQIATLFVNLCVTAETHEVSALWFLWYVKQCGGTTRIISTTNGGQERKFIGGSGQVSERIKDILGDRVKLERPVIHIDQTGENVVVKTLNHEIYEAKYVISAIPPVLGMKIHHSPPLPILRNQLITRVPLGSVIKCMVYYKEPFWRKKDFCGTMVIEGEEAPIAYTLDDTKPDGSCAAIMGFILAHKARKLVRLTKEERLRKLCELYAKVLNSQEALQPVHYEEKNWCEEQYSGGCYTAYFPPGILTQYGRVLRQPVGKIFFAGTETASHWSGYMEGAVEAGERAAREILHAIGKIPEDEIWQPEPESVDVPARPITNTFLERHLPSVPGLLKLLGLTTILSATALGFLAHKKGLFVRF
Method: as §1, §2

Row | SMILES | clinical effectiveness in Parkinson's disease (in words) (Parkinson's disease) | IC50 (MAO-A) | IC50 (MAO-B) | MAO-A/MAO-B (MAO-B)
1 | C#CCN(C)C(C)Cc1ccccc1 (racemic) [d,l-Deprenil] | effectiveness of this compound has clinically been proved | – | – | –
2 | CCc1nc(-c2ccc(OCCCn3ccnc3C)cc2)no1 [Example 6, 3-[4-[3-(2-methyl-1H-imidazol-1-yl)propoxy]phenyl]-5-ethyl-1,2,4-oxadiazole] | – | 150 µM | 150 µM | 1
3 | ClC(Cl)(Cl)c1nc(-c2ccc(OCCCn3ccnc3)cc2)no1 [Example 2, 3-[4-[3-(1H-imidazol-1-yl)propoxy]phenyl]-5-tri chloromethyl-1,2,4-oxadiazole] | – | 200 µM | 0.03 µM | 6700
